Where “and” joins values, the source holds several entries; their conditions need not be identical. Equal values may be shown once. Entries after “also recorded” stand apart in the source; their conditions may differ. Read-outs that look alike come from different tables or passages of the source. Marks after values point to notes of the source that are not given here.
Legend:
[1] = design: method as in PMID 30357450; conditions: NSG mice; cited from earlier work
P-glycoprotein (P-gp) = conditions: cited from earlier work
[2] = design: method as in PMID 23748921; conditions: cited from earlier work
C6 orthotopic tumor = system: C6 orthotopic tumor; design: method as in PMID 25695958; conditions: C6 orthotopic glioma, rats, 4 mg/kg; cited from earlier work
[3] = Single dose plasma pharmacokinetics (4 mg/kg i.p.), NCA; format: in vivo, Sprague-Dawley rats; conditions: for Cmax / Tmax / AUC(0-t) / half-life: ip; for Cmax / Tmax / CL (systemic clearance), plasma / Half-life t1/2, plasma / AUC 0–12, plasma unbound / AUC 0–72, plasma unbound / Cmax, plasma unbound / AUC(0-t) / half-life: single dose 4 mg/kg i.p.; for Cmax: read-out: Cmax, plasma total; for Tmax: read-out: Tmax, plasma total; for AUC 0–12, plasma unbound / AUC 0–72, plasma unbound / Cmax, plasma unbound: fraction unbound 0.38; for half-life: read-out: Half-life t1/2, plasma (converted)
Procedure: (§1) Age-matched (7–9 weeks) adult female (201–225 g; N = 10) and male (301–325 g; N = 10) jugular vein cannulated Sprague-Dawley rats (Charles River Laboratories) were used for this study. The experiments were conducted in strict accordance with the University of Cincinnati Institutional Animal Care and Use Committee (UC IACUC)-approved protocol (Protocol Number: 10-11-01-01) and all the studies were performed as per the highest international standards of animal welfare outlined by the NIH’s Guide for the Care and Use of Laboratory Animals. Upon arrival, animals were housed individually under pathogen-free, temperature and humidity-controlled environment on a 12/12 h light/dark cycle and were given access to standard chow and water ad libitum (ad-lib). To maintain the patency of the jugular vein catheters, they were flushed with normal saline and locked with the heparin-dextrose solution every other day.
(§2) Within 10 minutes of collection, plasma was separated by centrifugation of the blood samples at 4,000 rpm for 15 min. Microdialysis samples were collected simultaneously through the probes at the same time points from 0–12 hours.
(§3) Letrozole was extracted from the plasma samples using the liquid-liquid extraction technique. Calibration standards were freshly prepared by spiking working letrozole solution into the blank rat plasma to give a concentration curve ranging from 5 to 5000 ng/ml. Briefly, 50 μl of the plasma sample/standard spiked with known letrozole concentration was transferred to a glass tube containing 1 mL of the extraction solvent methyl-tertiary-butyl ether. All the samples were then vortex mixed for 40 sec and centrifuged for 5 min. 800 μl of the supernatant was decanted into a clean test tube and evaporated to dryness using a CentriVap evaporator. The precipitate was reconstituted in 100 μl of the mobile phase and vortex mixed, following which, 50 μl sample volume was injected onto the HPLC system for analysis. The dialysis samples, on the other hand, were injected directly onto HPLC.

[4] = In vivo unbound fraction in brain (brain ECF / whole brain tissue homogenate); conditions: Sprague-Dawley, rat, ip, healthy and tumor-bearing female rats, 4 mg/kg i.p., ~6 hrs, mean ± SD, read-out: Fraction unbound in brain (fu, brain)
From the text: Simcyp Animal Simulator V17 (Certara Inc.) was employed for developing a bottom-up whole body PBPK model incorporating the specified multi-compartment brain model. Based on its anatomy and physiology, the whole brain is described by three compartments, viz. brain blood, brain mass and cerebrospinal fluid (CSF) as illustrated in Fig 1 (Simcyp® Rat Simulator). For model development, the physiological/ system-specific parameters were inferred from the existing rodent species within the animal simulator while, the key drug- specific parameters used are summarized in Table 1. Briefly, all the physiochemical and binding to blood components (plasma proteins and erythrocytes) parameters of letrozole were derived from expansive literature review. […] Full-PBPK model was employed for drug distribution while the Rodgers and Rowland method or “Method 2”, as defined in Simcyp v17, predicted the volume of distribution (Vss). For the multi-compartment brain model, the passive permeability-surface area product on the BBB (PSB) was determined using the Crone- Renkin Equation [25, 26]: PSB=−Fpfln(1−Kin/Fpf) (3) where, Fpf is the cerebral blood or perfusion flow rate and Kin is the brain uptake clearance. […] The fu, brain for letrozole was experimentally determined in both healthy and tumor-bearing female Sprague-Dawley rats (N = 4/ group).

[5] = design: method as in PMID 23712697; conditions: in situ mouse brain perfusion; cited from earlier work
[6] = Steady state plasma pharmacokinetics (4 mg/kg i.p. once daily), NCA; format: in vivo, Sprague-Dawley rats; conditions: for Cmax / Tmax / AUC(0-t): Sprague-Dawley, rat, ip; for Cmax / Tmax / Rac’ (theoretical/predicted accumulation ratio, Eq 2) / AUC(0-t): plasma; for Cmax: read-out: Cmax, plasma total; for Tmax: read-out: Tmax, plasma total; for AUC 0–12, plasma unbound / AUC 0–24, plasma unbound / Cmax, plasma unbound: fraction unbound 0.38; for AUC(0-t): 4 mg/kg
Procedure: as §1, §3

[7] = Single dose brain ECF pharmacokinetics by intracerebral microdialysis; format: in vivo, Sprague-Dawley rats; conditions: single dose 4 mg/kg i.p.; for Tmax / AUC(0-t) / Kp uu: Sprague-Dawley, rat, ip; for Tmax / AUC(0-t): brain ECF (striatal microdialysate); for AUC(0-t): read-out: AUC 0–12, brain ECF; for Cmax, brain ECF / Kp uu: 4 mg/kg; for Kp uu: brain ECF / unbound plasma
Procedure: as §2

[8] = Sprague-Dawley, rat, plasma, female rats
[9] = Sprague-Dawley, rat, plasma, male rats
[10] = female rats, steady state, 4 mg/kg i.p. daily for 11 days
[11] = male rats, steady state, 4 mg/kg i.p. daily for 5 days
[12] = female rats, steady state, 11 days
[13] = male rats, steady state, 5 days

- clearance ([3]; Sprague-Dawley, rat, plasma, intraperitoneal, 4 mg/kg, female rats, read-out: clearance observed in this study): ~0.25 mL/min
- Cmax [3, 8]: 1200 ng/mL
- Tmax [3, 8]: 8.5 h
- Cmax [3, 9]: 1060 ng/mL
- Tmax [3, 9]: 6.5 h
- CL (systemic clearance), plasma ([3]; female rats): 57.4 (13.0)*** ml/h/kg
- Half-life t1/2, plasma ([3]; female rats, 4 mg/kg): 34.0 (3.6)*** h
- AUC 0–12, plasma unbound ([3]; female rats): 4446 (1160) h.ng/ml
- AUC 0–72, plasma unbound ([3]; female rats): 20668 (4980) h.ng/ml
- Cmax, plasma unbound ([3]; female rats): 456 (60) ng/ml
- AUC(0-t) ([3]; female, Sprague-Dawley, rat, plasma, 4 mg/kg, female rats, read-out: AUC 0–12, plasma total): 11700 ng·h/mL
- AUC(0-t) ([3]; female, Sprague-Dawley, rat, plasma, 4 mg/kg, female rats, read-out: AUC 0–72, plasma total): 54400 ng·h/mL
- half-life ([3]; female, Sprague-Dawley, rat, plasma, 4 mg/kg, female rats): ~34 h
- Half-life t1/2, plasma ([3]; male rats, 4 mg/kg): 9.2 (2.4) h and 9.23 h
- AUC 0–12, plasma unbound ([3]; male rats): 4066 (1140) h.ng/ml
- AUC 0–72, plasma unbound ([3]; male rats): 9447 (1920) h.ng/ml
- Cmax, plasma unbound ([3]; male rats): 403 (136) ng/ml
- AUC(0-t) ([3]; male, Sprague-Dawley, rat, plasma, 4 mg/kg, male rats, read-out: AUC 0–12, plasma total): 10700 ng·h/mL
- AUC(0-t) ([3]; male, Sprague-Dawley, rat, plasma, 4 mg/kg, male rats, read-out: AUC 0–72, plasma total): 24900 ng·h/mL
- half-life ([3]; male, Sprague-Dawley, rat, plasma, 4 mg/kg, male rats): ~9 h
- fraction unbound [4]: 0.58
- Cmax [6, 10]: 4830 ng/mL
- Tmax [6, 10]: 5.3 h
- Cmax [6, 11]: 1490 ng/mL
- Tmax [6, 11]: 3.3 h
- Rac plasma (observed accumulation ratio, AUC0-12) ([6]; female rats, Day 11 / Day 1): 4.2
- Rac plasma (observed accumulation ratio, Cmax) ([6]; female rats, Day 11 / Day 1): 4.0
- Rac’ (theoretical/predicted accumulation ratio, Eq 2) ([6]; female rats): 2.6
- CL (systemic clearance), plasma [6, 10]: 39.3 (5.5)* ml/h/kg
- AUC 0–12, plasma unbound [6, 12]: 18734 (2360) h.ng/ml
- AUC 0–24, plasma unbound [6, 12]: 39129 (5267) h.ng/ml
- Cmax, plasma unbound [6, 12]: 1835 (359) ng/ml
- AUC(0-t) ([6]; female, female rats, steady state, 4 mg/kg i.p. daily for 11 days, read-out: AUC 0–12, plasma total): 49300 ng·h/mL
- AUC(0-t) ([6]; female, female rats, steady state, 4 mg/kg i.p. daily for 11 days, read-out: AUC 0–24, plasma total): 103000 ng·h/mL
- AUC(0-t) ([6]; female, female rats, steady state, 4 mg/kg i.p. daily for 11 days, read-out: plasma AUC 0–24): 103000 ng·h/mL
- observed accumulation at steady state (plasma Cmax and AUC0-12) ([6]; male rats): approximately 1.4 fold
- Rac plasma (observed accumulation ratio, AUC0-12) ([6]; male rats, Day 5 / Day 1): 1.4
- Rac plasma (observed accumulation ratio, Cmax) ([6]; male rats, Day 5 / Day 1): 1.4
- Rac’ (theoretical/predicted accumulation ratio, Eq 2) ([6]; male rats): 1.2
- CL (systemic clearance), plasma [6, 11]: 200.6 (98) ml/h/kg
- AUC 0–12, plasma unbound [6, 13]: 5624 (2430) h.ng/ml
- AUC 0–24, plasma unbound [6, 13]: 9424 (4660) h.ng/ml
- Cmax, plasma unbound [6, 13]: 566 (209) ng/ml
- AUC(0-t) ([6]; male, male rats, steady state, 4 mg/kg i.p. daily for 5 days, read-out: AUC 0–12, plasma total): 14800 ng·h/mL
- AUC(0-t) ([6]; male, male rats, steady state, 4 mg/kg i.p. daily for 5 days, read-out: AUC 0–24, plasma total): 24800 ng·h/mL
- AUC(0-t) ([6]; male, male rats, steady state, 4 mg/kg i.p. daily for 5 days, read-out: plasma AUC 0–24): 24800 ng·h/mL
- systemic clearance, difference between male and female rats ([6]; steady state): approximately 5.0 fold
- Tmax ([7]; female rats): 6.9 h
- AUC(0-t) ([7]; female rats): 5750 ng·h/mL
- Tmax ([7]; male rats): 4.7 h
- AUC(0-t) ([7]; male rats): 2410 ng·h/mL
- Kp uu ([7]; female, female rats, read-out: Kpuu (AUC0-12 brain ECF / plasma unbound)): 1.3
- Kp uu ([7]; female, female rats, read-out: Kpuu (Cmax brain ECF / plasma unbound)): 1.4
- Kp uu ([7]; male, male rats, read-out: Kpuu (AUC0-12 brain ECF / plasma unbound)): 0.6
- Kp uu ([7]; male, male rats, read-out: Kpuu (Cmax brain ECF / plasma unbound)): 0.6
- brain ECF AUC0-12, female versus male difference [7]: 2.4 fold
- brain ECF Cmax, female versus male difference [7]: 2.5 fold
SMILES: N#Cc1ccc(C(c2ccc(C#N)cc2)n2cncn2)cc1 [letrozole]
- half-life [1]: ~ 3 hrs
- substrate for the efflux transporter P-glycoprotein (P-gp) (P-glycoprotein (P-gp)): not a substrate
- brain-to-plasma partition coefficients ([2]; brain and brain tumor tissue, female Sprague-Dawley rats): 0.5–1.0
- intra-tumoral levels relative to the contralateral tumor-free region [2]: 1.5 to 2 fold
- in vivo efficacy (tumor mass / volume) (C6 orthotopic tumor): marked reduction in the tumor mass; also recorded: marked reduction in tumor volume
- CL (systemic clearance), plasma ([3]; male rats, 4 mg/kg): 145.9 ± 14.0 ml/h/kg and 146 (14.0) ml/h/kg
- Kin (brain uptake clearance) [5]: 0.422 ± 0.068 mL/min/g brain
- Cmax, brain ECF ([7]; female rats): 660 ± 260 ng/ml and 660 (260)* ng/ml and 660 ng/ml
- Cmax, brain ECF ([7]; male rats): 260 ± 80 ng/ml and 260 (80) ng/ml and 260 ng/ml
